Test: Stability of the solid form upon storage
Type: physicochemical
Details: storage at ambient conditions

C[C@@H]1CC2C3C[C@H](F)C4=CC(=O)C=C[C@]4(C)[C@@]3(F)[C@@H](O)C[C@]2(C)[C@@]1(OC(=O)c1ccco1)C(=O)SCC#CCOC(=O)CC(C)(C)F (stereo partly drawn) [amorphous form, S-[4-(3-fluoro-3-methylbutyryloxy)but-2-ynyl]6α,9α-difluoro-17α-(furan-2-yl)carbonyloxy-11β-hydroxy-16α-methyl-3-oxoandrosta-1,4-diene-17β-carbothioate]
stability upon storage: unstable upon storage even at ambient conditions
